Experimental data from patent US8192962B2, “Processes for detecting toxic substances” (Daikin Industries, Ltd., priority 2001, dated 2012).

Test system: Detoxification protein genes
Experiment: DNA chip mRNA expression in yeast, detoxification protein genes (Table 8)
Type: cell-based, Saccharomyces cerevisiae S288C
Summary of the method: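 Measured as treated-to-untreated fluorescence ratio on a full-genome yeast DNA chip. Cells (S288C, YPD, 25° C.) were exposed in log phase for two hours to one chemical, dosed to curb growth without killing.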

## O=[N+]([O-])c1cc[n+]([O-])c2ccccc12 [(5), 4-nitroquinolin-N-oxide]
Yeast gene YBR244W
  The level of expressed mRNA in the presence of chemical substance/The level of expressed mRNA in the absence of chemical substance: 1.7
Yeast gene YBR293W
  The level of expressed mRNA in the presence of chemical substance/The level of expressed mRNA in the absence of chemical substance: 0.8
Yeast gene YCL035C
  The level of expressed mRNA in the presence of chemical substance/The level of expressed mRNA in the absence of chemical substance: 1.5
Yeast gene YCL069W
  The level of expressed mRNA in the presence of chemical substance/The level of expressed mRNA in the absence of chemical substance: 0.9
Yeast gene YCR083W
  The level of expressed mRNA in the presence of chemical substance/The level of expressed mRNA in the absence of chemical substance: 1.6
Yeast gene YDL100C
  The level of expressed mRNA in the presence of chemical substance/The level of expressed mRNA in the absence of chemical substance: 1.0
Yeast gene YDL168W
  The level of expressed mRNA in the presence of chemical substance/The level of expressed mRNA in the absence of chemical substance: 1.2
Yeast gene YDR256C
  The level of expressed mRNA in the presence of chemical substance/The level of expressed mRNA in the absence of chemical substance: 1.2
Yeast gene YDR453C
  The level of expressed mRNA in the presence of chemical substance/The level of expressed mRNA in the absence of chemical substance: 0.7
Yeast gene YDR513W
  The level of expressed mRNA in the presence of chemical substance/The level of expressed mRNA in the absence of chemical substance: 0.9
Yeast gene YDR538W
  The level of expressed mRNA in the presence of chemical substance/The level of expressed mRNA in the absence of chemical substance: 1.0
Yeast gene YEL027W
  The level of expressed mRNA in the presence of chemical substance/The level of expressed mRNA in the absence of chemical substance: 1.0
Yeast gene YEL065W
  The level of expressed mRNA in the presence of chemical substance/The level of expressed mRNA in the absence of chemical substance: 1.4
Yeast gene YER185W
  The level of expressed mRNA in the presence of chemical substance/The level of expressed mRNA in the absence of chemical substance: 1.6
Yeast gene YFL050C
  The level of expressed mRNA in the presence of chemical substance/The level of expressed mRNA in the absence of chemical substance: 1.0
Yeast gene YGL013C
  The level of expressed mRNA in the presence of chemical substance/The level of expressed mRNA in the absence of chemical substance: 1.1
Yeast gene YGL254W
  The level of expressed mRNA in the presence of chemical substance/The level of expressed mRNA in the absence of chemical substance: 1.1
Yeast gene YGR088W
  The level of expressed mRNA in the presence of chemical substance/The level of expressed mRNA in the absence of chemical substance: 1.0
Yeast gene YGR138C
  The level of expressed mRNA in the presence of chemical substance/The level of expressed mRNA in the absence of chemical substance: 0.8
Yeast gene YGR197C
  The level of expressed mRNA in the presence of chemical substance/The level of expressed mRNA in the absence of chemical substance: 0.7
Yeast gene YGR209C
  The level of expressed mRNA in the presence of chemical substance/The level of expressed mRNA in the absence of chemical substance: 1.9
Yeast gene YGR224W
  The level of expressed mRNA in the presence of chemical substance/The level of expressed mRNA in the absence of chemical substance: 1.4
Yeast gene YHL040C
  The level of expressed mRNA in the presence of chemical substance/The level of expressed mRNA in the absence of chemical substance: 1.1
Yeast gene YHL047C
  The level of expressed mRNA in the presence of chemical substance/The level of expressed mRNA in the absence of chemical substance: 1.2
Yeast gene YHR008C
  The level of expressed mRNA in the presence of chemical substance/The level of expressed mRNA in the absence of chemical substance: 0.6
Yeast gene YHR048W
  The level of expressed mRNA in the presence of chemical substance/The level of expressed mRNA in the absence of chemical substance: 1.0
Yeast gene YHR053C
  The level of expressed mRNA in the presence of chemical substance/The level of expressed mRNA in the absence of chemical substance: 2.9
Yeast gene YHR055C
  The level of expressed mRNA in the presence of chemical substance/The level of expressed mRNA in the absence of chemical substance: 2.7
Yeast gene YIR002C
  The level of expressed mRNA in the presence of chemical substance/The level of expressed mRNA in the absence of chemical substance: 1.2
Yeast gene YIR038C
  The level of expressed mRNA in the presence of chemical substance/The level of expressed mRNA in the absence of chemical substance: 0.7
Yeast gene YJL101C
  The level of expressed mRNA in the presence of chemical substance/The level of expressed mRNA in the absence of chemical substance: 1.4
Yeast gene YJR104C
  The level of expressed mRNA in the presence of chemical substance/The level of expressed mRNA in the absence of chemical substance: 1.5
Yeast gene YKL026C
  The level of expressed mRNA in the presence of chemical substance/The level of expressed mRNA in the absence of chemical substance: 1.0
Yeast gene YKL064W
  The level of expressed mRNA in the presence of chemical substance/The level of expressed mRNA in the absence of chemical substance: 1.2
Yeast gene YKR066C
  The level of expressed mRNA in the presence of chemical substance/The level of expressed mRNA in the absence of chemical substance: 1.0
Yeast gene YKR105C
  The level of expressed mRNA in the presence of chemical substance/The level of expressed mRNA in the absence of chemical substance: 1.0
Yeast gene YKR106W
  The level of expressed mRNA in the presence of chemical substance/The level of expressed mRNA in the absence of chemical substance: 1.2
Yeast gene YLL028W
  The level of expressed mRNA in the presence of chemical substance/The level of expressed mRNA in the absence of chemical substance: 0.9
Yeast gene YLL057C
  The level of expressed mRNA in the presence of chemical substance/The level of expressed mRNA in the absence of chemical substance: 1.1
Yeast gene YLL060C
  The level of expressed mRNA in the presence of chemical substance/The level of expressed mRNA in the absence of chemical substance: 0.9
Yeast gene YLR043C
  The level of expressed mRNA in the presence of chemical substance/The level of expressed mRNA in the absence of chemical substance: 2.0
Yeast gene YLR046C
  The level of expressed mRNA in the presence of chemical substance/The level of expressed mRNA in the absence of chemical substance: 1.0
Yeast gene YML028W
  The level of expressed mRNA in the presence of chemical substance/The level of expressed mRNA in the absence of chemical substance: 1.6
Yeast gene YML116W
  The level of expressed mRNA in the presence of chemical substance/The level of expressed mRNA in the absence of chemical substance: 1.2
Yeast gene YMR015C
  The level of expressed mRNA in the presence of chemical substance/The level of expressed mRNA in the absence of chemical substance: 1.7
Yeast gene YMR038C
  The level of expressed mRNA in the presence of chemical substance/The level of expressed mRNA in the absence of chemical substance: 1.5
Yeast gene YNL239W
  The level of expressed mRNA in the presence of chemical substance/The level of expressed mRNA in the absence of chemical substance: 1.2
Yeast gene YNL241C
  The level of expressed mRNA in the presence of chemical substance/The level of expressed mRNA in the absence of chemical substance: 0.8
Yeast gene YNL259C
  The level of expressed mRNA in the presence of chemical substance/The level of expressed mRNA in the absence of chemical substance: 1.1
Yeast gene YOL158C
  The level of expressed mRNA in the presence of chemical substance/The level of expressed mRNA in the absence of chemical substance: 1.2
Yeast gene YOR031W
  The level of expressed mRNA in the presence of chemical substance/The level of expressed mRNA in the absence of chemical substance: 1.4
Yeast gene YOR153W
  The level of expressed mRNA in the presence of chemical substance/The level of expressed mRNA in the absence of chemical substance: 1.0
Yeast gene YOR247W
  The level of expressed mRNA in the presence of chemical substance/The level of expressed mRNA in the absence of chemical substance: 0.6
Yeast gene YOR251C
  The level of expressed mRNA in the presence of chemical substance/The level of expressed mRNA in the absence of chemical substance: 0.8
Yeast gene YOR273C
  The level of expressed mRNA in the presence of chemical substance/The level of expressed mRNA in the absence of chemical substance: 1.1
Yeast gene YPL163C
  The level of expressed mRNA in the presence of chemical substance/The level of expressed mRNA in the absence of chemical substance: 0.6
Yeast gene YPR200C
  The level of expressed mRNA in the presence of chemical substance/The level of expressed mRNA in the absence of chemical substance: 1.6
